Data reported in ChEMBL document CHEMBL4507299, “Data for DCP probe PF-04554878” (2021).

Key:
[1] = target: Tyrosine-protein kinase JAK1 (Homo sapiens) (UniProt P23458)
[2] = target: SRSF protein kinase 1 (Homo sapiens) (UniProt Q96SB4)
[3] = target: Discoidin domain-containing receptor 2 (Homo sapiens) (UniProt Q16832)
[4] = system: Epidermal growth factor receptor (Homo sapiens), P00533 [UNDEFINED MUTATION]
[5] = target: Mitogen-activated protein kinase kinase kinase 19 (Homo sapiens) (UniProt Q56UN5)
[6] = target: Aurora kinase C (Homo sapiens) (UniProt Q9UQB9)
Sequence of Aurora kinase C (Homo sapiens) (Q9UQB9 whole entry): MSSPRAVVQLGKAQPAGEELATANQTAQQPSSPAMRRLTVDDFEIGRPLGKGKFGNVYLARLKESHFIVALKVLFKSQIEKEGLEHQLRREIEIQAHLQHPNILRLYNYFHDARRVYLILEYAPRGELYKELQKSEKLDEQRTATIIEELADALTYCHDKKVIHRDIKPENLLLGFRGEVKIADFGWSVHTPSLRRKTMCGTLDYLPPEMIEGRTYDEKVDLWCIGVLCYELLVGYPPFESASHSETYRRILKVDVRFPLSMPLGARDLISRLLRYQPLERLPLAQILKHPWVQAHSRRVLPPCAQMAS

[7] = target: Serine/threonine-protein kinase Nek2 (Homo sapiens) (UniProt P51955)
[8] = target: Serine/threonine-protein kinase N2 (Homo sapiens) (UniProt Q16513)
Sequence of Serine/threonine-protein kinase N2 (Homo sapiens) (Q16513 whole entry, looked up): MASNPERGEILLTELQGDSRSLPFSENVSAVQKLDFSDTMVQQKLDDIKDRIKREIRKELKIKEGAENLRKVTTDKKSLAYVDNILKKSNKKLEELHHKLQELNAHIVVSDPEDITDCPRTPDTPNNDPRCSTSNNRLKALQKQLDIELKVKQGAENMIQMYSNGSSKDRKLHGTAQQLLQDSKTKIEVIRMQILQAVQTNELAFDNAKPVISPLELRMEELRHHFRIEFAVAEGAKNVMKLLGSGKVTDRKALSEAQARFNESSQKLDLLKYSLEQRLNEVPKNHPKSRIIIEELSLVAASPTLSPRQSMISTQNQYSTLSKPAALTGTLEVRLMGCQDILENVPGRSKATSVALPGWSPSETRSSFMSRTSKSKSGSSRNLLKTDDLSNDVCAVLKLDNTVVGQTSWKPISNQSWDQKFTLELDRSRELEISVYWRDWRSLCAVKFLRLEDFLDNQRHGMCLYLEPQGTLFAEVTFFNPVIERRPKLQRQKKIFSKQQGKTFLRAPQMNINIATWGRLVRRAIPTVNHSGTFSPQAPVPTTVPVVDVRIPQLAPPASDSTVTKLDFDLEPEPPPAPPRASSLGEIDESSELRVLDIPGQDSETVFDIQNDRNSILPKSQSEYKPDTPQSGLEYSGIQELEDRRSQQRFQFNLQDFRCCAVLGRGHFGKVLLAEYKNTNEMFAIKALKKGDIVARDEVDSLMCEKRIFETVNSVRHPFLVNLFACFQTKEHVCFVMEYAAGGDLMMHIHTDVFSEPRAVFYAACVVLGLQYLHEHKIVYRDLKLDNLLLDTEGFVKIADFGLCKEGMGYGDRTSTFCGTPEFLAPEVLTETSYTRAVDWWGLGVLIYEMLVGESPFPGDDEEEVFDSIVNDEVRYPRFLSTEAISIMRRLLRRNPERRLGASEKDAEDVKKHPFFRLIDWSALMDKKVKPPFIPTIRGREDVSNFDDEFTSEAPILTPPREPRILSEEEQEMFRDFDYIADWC

[9] = target: Tyrosine-protein kinase HCK (Homo sapiens) (UniProt P08631)
[10] = target: Misshapen-like kinase 1 (Homo sapiens) (UniProt Q8N4C8)
Sequence of Misshapen-like kinase 1 (Homo sapiens) (Q8N4C8 whole entry, looked up): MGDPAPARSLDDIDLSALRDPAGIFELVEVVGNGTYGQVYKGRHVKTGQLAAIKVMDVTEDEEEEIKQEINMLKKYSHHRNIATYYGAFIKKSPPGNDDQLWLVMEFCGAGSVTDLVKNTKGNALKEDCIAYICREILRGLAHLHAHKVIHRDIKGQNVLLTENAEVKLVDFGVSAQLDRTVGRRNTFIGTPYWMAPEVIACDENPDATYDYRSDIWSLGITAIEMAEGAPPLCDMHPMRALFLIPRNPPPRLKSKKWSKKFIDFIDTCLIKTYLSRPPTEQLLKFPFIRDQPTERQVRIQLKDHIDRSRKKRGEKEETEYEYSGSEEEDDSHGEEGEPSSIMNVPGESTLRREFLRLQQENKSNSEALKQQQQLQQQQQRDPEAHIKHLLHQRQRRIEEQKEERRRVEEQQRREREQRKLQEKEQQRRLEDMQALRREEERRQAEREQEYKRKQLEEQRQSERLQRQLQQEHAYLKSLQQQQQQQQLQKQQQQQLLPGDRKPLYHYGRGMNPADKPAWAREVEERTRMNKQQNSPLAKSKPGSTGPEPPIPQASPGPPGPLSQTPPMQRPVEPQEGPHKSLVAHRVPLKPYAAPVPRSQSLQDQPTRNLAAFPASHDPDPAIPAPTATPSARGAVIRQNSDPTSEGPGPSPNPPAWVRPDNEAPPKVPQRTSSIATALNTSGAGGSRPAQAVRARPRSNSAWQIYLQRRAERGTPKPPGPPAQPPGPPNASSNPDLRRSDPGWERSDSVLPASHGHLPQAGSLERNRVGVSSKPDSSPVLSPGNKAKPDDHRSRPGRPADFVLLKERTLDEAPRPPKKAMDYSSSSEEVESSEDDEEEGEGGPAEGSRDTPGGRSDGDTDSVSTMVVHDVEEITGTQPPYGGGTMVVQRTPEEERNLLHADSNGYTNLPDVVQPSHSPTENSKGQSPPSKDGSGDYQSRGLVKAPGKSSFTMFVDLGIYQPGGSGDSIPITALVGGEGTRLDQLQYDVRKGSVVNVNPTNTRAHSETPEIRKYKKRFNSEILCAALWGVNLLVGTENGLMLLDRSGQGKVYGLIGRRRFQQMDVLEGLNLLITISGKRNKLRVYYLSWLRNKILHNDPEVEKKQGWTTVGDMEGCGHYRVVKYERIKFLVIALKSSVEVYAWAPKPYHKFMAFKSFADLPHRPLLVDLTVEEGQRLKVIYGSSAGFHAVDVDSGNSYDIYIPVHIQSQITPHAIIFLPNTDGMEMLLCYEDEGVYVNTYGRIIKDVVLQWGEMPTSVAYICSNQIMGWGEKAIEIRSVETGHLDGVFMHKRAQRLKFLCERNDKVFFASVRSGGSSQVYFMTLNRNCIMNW

[11] = target: Serine/threonine-protein kinase 38-like (Homo sapiens) (UniProt Q9Y2H1)
[12] = target: Mitogen-activated protein kinase 7 (Homo sapiens) (UniProt Q13164)
[13] = target: Serine/threonine-protein kinase BRSK2 (Homo sapiens) (UniProt Q8IWQ3)
[14] = target: Calcium-dependent protein kinase 1 (Plasmodium falciparum) (UniProt P62344)
[15] = target: Serine/threonine-protein kinase DCLK3 (Homo sapiens) (UniProt Q9C098)
[16] = target: Sodium-dependent serotonin transporter (Homo sapiens) (UniProt P31645); conditions: Compound concentration 10.0 uM
Sequence of Sodium-dependent serotonin transporter (Homo sapiens) (P31645 whole entry, looked up): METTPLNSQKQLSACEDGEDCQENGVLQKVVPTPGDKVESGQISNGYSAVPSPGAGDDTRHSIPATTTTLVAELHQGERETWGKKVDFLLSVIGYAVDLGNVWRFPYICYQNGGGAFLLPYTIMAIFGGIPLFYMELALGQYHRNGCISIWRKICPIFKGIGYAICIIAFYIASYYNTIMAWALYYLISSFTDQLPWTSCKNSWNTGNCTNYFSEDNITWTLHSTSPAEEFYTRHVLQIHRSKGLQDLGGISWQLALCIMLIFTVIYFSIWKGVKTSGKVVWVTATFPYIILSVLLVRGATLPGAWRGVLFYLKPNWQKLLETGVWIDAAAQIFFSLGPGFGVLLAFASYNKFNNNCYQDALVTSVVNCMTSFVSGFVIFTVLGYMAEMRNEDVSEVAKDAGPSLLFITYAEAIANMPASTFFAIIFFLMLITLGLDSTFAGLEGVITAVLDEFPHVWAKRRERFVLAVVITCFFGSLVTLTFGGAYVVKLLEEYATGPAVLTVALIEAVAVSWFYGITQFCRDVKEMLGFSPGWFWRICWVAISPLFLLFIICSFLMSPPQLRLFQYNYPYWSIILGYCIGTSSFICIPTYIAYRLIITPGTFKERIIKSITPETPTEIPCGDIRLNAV

[17] = target: Serine/threonine-protein kinase 32C (Homo sapiens) (UniProt Q86UX6)
[18] = target: Protein kinase C iota type (Homo sapiens) (UniProt P41743)
[19] = target: Ephrin type-B receptor 2 (Homo sapiens) (UniProt P29323)
[20] = target: Dual serine/threonine and tyrosine protein kinase (Homo sapiens) (UniProt Q6XUX3)
[21] = system: Tyrosine-protein kinase ABL1 (Homo sapiens), P00519 [E255K]
[22] = target: Mitogen-activated protein kinase kinase kinase 2 (Homo sapiens) (UniProt Q9Y2U5)
[23] = target: Muscarinic acetylcholine receptor M2 (Homo sapiens) (UniProt P08172); conditions: Compound concentration 10.0 uM
[24] = target: Calcium/calmodulin-dependent protein kinase type 1B (Homo sapiens) (UniProt Q6P2M8)
[25] = target: Serine/threonine-protein kinase tousled-like 1 (Homo sapiens) (UniProt Q9UKI8)
[26] = system: Phosphatidylinositol 4,5-bisphosphate 3-kinase catalytic subunit alpha isoform (Homo sapiens), P42336 [E545A]
[27] = target: Serine/threonine-protein kinase Nek3 (Homo sapiens) (UniProt P51956)
[28] = target: Serine/threonine-protein kinase WNK1 (Homo sapiens) (UniProt Q9H4A3)
[29] = target: Tyrosine-protein kinase ABL2 (Homo sapiens) (UniProt P42684)
[30] = target: cAMP-dependent protein kinase catalytic subunit alpha (Homo sapiens) (UniProt P17612)
[31] = target: Serine/threonine-protein kinase/endoribonuclease IRE1 (Homo sapiens) (UniProt O75460)
[32] = target: Serine/threonine-protein kinase 38 (Homo sapiens) (UniProt Q15208)
[33] = system: Mast/stem cell growth factor receptor Kit (Homo sapiens), P10721 [D816H]
[34] = target: Cyclin-dependent kinase 11B (Homo sapiens) (UniProt P21127)
[35] = target: Dual specificity tyrosine-phosphorylation-regulated kinase 2 (Homo sapiens) (UniProt Q92630)
[36] = target: Mitogen-activated protein kinase 3 (Homo sapiens) (UniProt P27361)
Sequence of Mitogen-activated protein kinase 3 (Homo sapiens) (P27361 whole entry): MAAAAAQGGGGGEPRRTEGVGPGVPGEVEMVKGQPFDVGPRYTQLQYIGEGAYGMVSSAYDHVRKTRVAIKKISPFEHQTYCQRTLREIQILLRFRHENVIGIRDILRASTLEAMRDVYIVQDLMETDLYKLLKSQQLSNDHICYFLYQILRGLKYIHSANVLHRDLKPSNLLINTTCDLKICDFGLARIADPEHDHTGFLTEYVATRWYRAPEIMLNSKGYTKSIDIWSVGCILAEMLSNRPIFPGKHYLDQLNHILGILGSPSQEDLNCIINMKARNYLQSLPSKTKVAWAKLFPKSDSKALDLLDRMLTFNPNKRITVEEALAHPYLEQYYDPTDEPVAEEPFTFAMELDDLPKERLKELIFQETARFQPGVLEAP

[37] = target: Ephrin type-A receptor 1 (Homo sapiens) (UniProt P21709)
[38] = target: Homeodomain-interacting protein kinase 2 (Homo sapiens) (UniProt Q9H2X6)
[39] = target: TGF-beta receptor type-2 (Homo sapiens) (UniProt P37173)
[40] = target: Dual specificity mitogen-activated protein kinase kinase 7 (Homo sapiens) (UniProt O14733)
[41] = target: Serine/threonine-protein kinase PAK 5 (Homo sapiens) (UniProt Q9P286)
[42] = target: Sigma non-opioid intracellular receptor 1 (Homo sapiens) (UniProt Q99720); conditions: Compound concentration 10.0 uM
[43] = target: Ephrin type-A receptor 3 (Homo sapiens) (UniProt P29320)
[44] = target: Rho-associated protein kinase 2 (Homo sapiens) (UniProt O75116)
Sequence of Rho-associated protein kinase 2 (Homo sapiens) (O75116 whole entry, looked up): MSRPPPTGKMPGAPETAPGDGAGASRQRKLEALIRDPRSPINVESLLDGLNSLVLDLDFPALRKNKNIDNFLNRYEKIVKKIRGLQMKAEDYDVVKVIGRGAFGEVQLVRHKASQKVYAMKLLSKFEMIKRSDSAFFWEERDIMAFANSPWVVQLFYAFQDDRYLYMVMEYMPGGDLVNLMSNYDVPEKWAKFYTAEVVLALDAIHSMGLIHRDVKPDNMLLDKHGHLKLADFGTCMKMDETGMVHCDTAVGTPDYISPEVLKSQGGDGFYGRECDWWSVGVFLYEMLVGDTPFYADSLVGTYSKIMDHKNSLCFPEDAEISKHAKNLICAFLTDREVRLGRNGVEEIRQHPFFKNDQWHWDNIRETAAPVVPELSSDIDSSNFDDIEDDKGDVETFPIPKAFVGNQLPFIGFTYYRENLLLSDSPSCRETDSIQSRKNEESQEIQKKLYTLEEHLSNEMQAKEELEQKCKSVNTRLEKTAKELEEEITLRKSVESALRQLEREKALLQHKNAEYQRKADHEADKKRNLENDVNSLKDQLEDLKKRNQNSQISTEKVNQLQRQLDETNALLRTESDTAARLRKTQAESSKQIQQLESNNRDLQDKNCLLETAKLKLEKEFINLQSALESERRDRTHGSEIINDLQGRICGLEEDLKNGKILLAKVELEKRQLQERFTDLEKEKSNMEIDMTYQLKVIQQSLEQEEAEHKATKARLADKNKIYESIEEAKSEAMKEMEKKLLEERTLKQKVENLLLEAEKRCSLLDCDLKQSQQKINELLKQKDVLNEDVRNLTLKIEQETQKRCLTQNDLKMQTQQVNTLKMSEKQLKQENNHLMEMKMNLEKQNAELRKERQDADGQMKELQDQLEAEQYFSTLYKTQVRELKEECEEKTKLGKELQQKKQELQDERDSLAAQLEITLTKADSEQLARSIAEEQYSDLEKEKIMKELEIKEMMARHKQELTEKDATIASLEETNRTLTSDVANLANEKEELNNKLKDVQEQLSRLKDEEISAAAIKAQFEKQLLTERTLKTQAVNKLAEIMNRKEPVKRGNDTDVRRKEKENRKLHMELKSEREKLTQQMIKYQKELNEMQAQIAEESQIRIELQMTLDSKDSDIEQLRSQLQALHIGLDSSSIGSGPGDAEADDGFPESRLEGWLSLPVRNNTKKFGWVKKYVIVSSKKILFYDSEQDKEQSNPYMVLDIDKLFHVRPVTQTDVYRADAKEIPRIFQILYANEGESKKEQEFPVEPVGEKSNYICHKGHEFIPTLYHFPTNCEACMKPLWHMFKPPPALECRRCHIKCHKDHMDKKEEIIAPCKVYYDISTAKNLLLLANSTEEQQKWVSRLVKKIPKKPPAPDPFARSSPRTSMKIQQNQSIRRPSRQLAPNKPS

[45] = target: Serine/threonine-protein kinase MAK (Homo sapiens) (UniProt P20794)
[46] = Compound concentration 100.0 nM
[47] = Compound concentration 1000.0 nM

Q: How did the residual activity [1, 46] turn out when `CNC(=O)c1ccc(Nc2ncc(C(F)(F)F)c(NCc3nccnc3N(C)S(C)(=O)=O)n2)cc1` [DEFACTINIB] was run?
A: 28%

Q: What about the residual activity [2, 46] of the same compound?
A: 51%

Q: What about the residual activity [3, 46] of the same compound?
A: 100%

Q: What about the residual activity [4, 46] of the same compound?
A: 82%

Q: What about the residual activity [5, 46] of the same compound?
A: 1.7%

Q: And the residual activity [6, 46]?
A: 47%

Q: What about the residual activity [7, 46] of the same compound?
A: 75%

Q: And the residual activity [8, 46]?
A: 37%

Q: And the residual activity [9, 46]?
A: 100%

Q: And the residual activity [10, 46]?
A: 44%

Q: And the residual activity [11, 46]?
A: 73%

Q: And the residual activity [12, 46]?
A: 87%

Q: And the residual activity [13, 46]?
A: 100%

Q: What about the residual activity [14, 46] of the same compound?
A: 85%

Q: What about the residual activity [15, 46] of the same compound?
A: 67%

Q: And the inhibition [16]?
A: 2.45%

Q: And the residual activity [17, 46]?
A: 100%

Q: And the residual activity [18, 46]?
A: 84%

Q: What about the residual activity [19, 46] of the same compound?
A: 76%

Q: What about the residual activity [20, 46] of the same compound?
A: 87%

Q: What about the residual activity [21, 46] of the same compound?
A: 100%

Q: What about the residual activity [22, 46] of the same compound?
A: 65%

Q: And the inhibition [23]?
A: 19.5%

Q: What about the residual activity [24, 46] of the same compound?
A: 100%

Q: What about the residual activity [25, 46] of the same compound?
A: 73%

Q: What about the residual activity [26, 46] of the same compound?
A: 98%

Q: And the residual activity [27, 46]?
A: 100%

Q: And the residual activity [28, 46]?
A: 100%

Q: What about the residual activity [29, 46] of the same compound?
A: 93%

Q: And the residual activity [30, 46]?
A: 100%

Q: What about the residual activity [31, 46] of the same compound?
A: 75%

Q: And the residual activity [32, 46]?
A: 86%

Q: And the residual activity [33, 46]?
A: 71%

Q: What about the residual activity [34, 46] of the same compound?
A: 95%

Q: And the residual activity [35, 46]?
A: 76%

Q: What about the residual activity [36, 46] of the same compound?
A: 86%

Q: And the residual activity [37, 46]?
A: 98%

Q: And the residual activity [38, 46]?
A: 37%

Q: And the residual activity [39, 46]?
A: 100%

Q: And the residual activity [40, 46]?
A: 97%

Q: And the residual activity [41, 46]?
A: 62%

Q: And the inhibition [42]?
A: 40.1%

Q: What about the residual activity [43, 46] of the same compound?
A: 82%

Q: And the residual activity [44, 46]?
A: 100%

Q: And the residual activity [45, 46]?
A: 85%

Q: With `CN(c1ccnc(CNc2nc(Nc3ccc4c(c3)CC(=O)N4)ncc2C(F)(F)F)n1)S(C)(=O)=O` [PF-00911705] as the compound, how does the residual activity [1, 47] read?
A: 94%

Q: And the residual activity [2, 47]?
A: 17%

Q: And the residual activity [3, 47]?
A: 94%

Q: And the residual activity [4, 47]?
A: 57%

Q: And the residual activity [5, 47]?
A: 0.4%

Q: What about the residual activity [6, 47] of the same compound?
A: 14%

Q: What about the residual activity [7, 47] of the same compound?
A: 83%

Q: And the residual activity [8, 47]?
A: 22%

Q: What about the residual activity [9, 47] of the same compound?
A: 100%

Q: And the residual activity [10, 47]?
A: 53%

Q: And the residual activity [11, 47]?
A: 75%

Q: What about the residual activity [12, 47] of the same compound?
A: 78%

Q: And the residual activity [13, 47]?
A: 97%

Q: What about the residual activity [14, 47] of the same compound?
A: 84%

Q: And the residual activity [15, 47]?
A: 43%

Q: And the inhibition [16]?
A: 33.5%

Q: What about the residual activity [17, 47] of the same compound?
A: 76%

Q: What about the residual activity [18, 47] of the same compound?
A: 55%

Q: And the residual activity [19, 47]?
A: 81%

Q: What about the residual activity [20, 47] of the same compound?
A: 53%

Q: And the residual activity [21, 47]?
A: 34%

Q: What about the residual activity [22, 47] of the same compound?
A: 9.7%

Q: And the inhibition [23]?
A: -2.08%

Q: And the residual activity [24, 47]?
A: 66%

Q: And the residual activity [25, 47]?
A: 79%

Q: And the residual activity [26, 47]?
A: 90%

Q: What about the residual activity [27, 47] of the same compound?
A: 60%

Q: What about the residual activity [28, 47] of the same compound?
A: 87%

Q: And the residual activity [29, 47]?
A: 75%

Q: And the residual activity [30, 47]?
A: 81%

Q: And the residual activity [31, 47]?
A: 49%

Q: What about the residual activity [32, 47] of the same compound?
A: 65%

Q: What about the residual activity [33, 47] of the same compound?
A: 44%

Q: What about the residual activity [34, 47] of the same compound?
A: 91%

Q: And the residual activity [35, 47]?
A: 37%

Q: And the residual activity [36, 47]?
A: 96%

Q: And the residual activity [37, 47]?
A: 86%

Q: What about the residual activity [38, 47] of the same compound?
A: 54%

Q: And the residual activity [39, 47]?
A: 100%

Q: And the residual activity [40, 47]?
A: 73%

Q: What about the residual activity [41, 47] of the same compound?
A: 76%

Q: What about the inhibition [42] of the same compound?
A: 23.1%

Q: And the residual activity [43, 47]?
A: 72%

Q: And the residual activity [44, 47]?
A: 69%

Q: What about the residual activity [45, 47] of the same compound?
A: 100%
